Key:
Rattus norvegicus [1] = assay: Decrease in fed plasma insulin level in Zucker rat sub-chronic fa/fa prediabetic model assessed as change in plasma insulin level at 10 mg/kg, po qd for 4 days measured on day 5 relative to control; format: functional; parameters: scale not given: the % may be the effect or the level left
Rattus norvegicus [2] = assay: Toxicity in Zucker rat sub-chronic fa/fa prediabetic model assessed as serum triglyceride level at 1 mg/kg, po qd for 31 days measured on day 32 (reference value: 1382 +/- 268 mg/dl); format: organism-based; conditions: in vivo, 744 h
[3] = Terminal half life in CD-1 mouse at 20 mg/kg administered via oral gavage by LC-MS analysis; format: ADME, organism-based; conditions: in vivo, read-out: beta t1/2 (converted)
Rattus norvegicus [4] = assay: Effect on PGAM2 gene expression in epididymal white adipose tissue of Zucker rat sub-chronic fa/fa prediabetic model at 10 mg/kg, po qd for 15 days by microarray analysis relative to control; format: functional
Rattus norvegicus [5] = assay: Effect on NDUFV3 gene expression in epididymal white adipose tissue of Zucker rat sub-chronic fa/fa prediabetic model at 10 mg/kg, po qd for 15 days by microarray analysis relative to control; format: functional
Rattus norvegicus [6] = assay: Toxicity in Zucker rat sub-chronic fa/fa prediabetic model assessed as liver weight at 10 mg/kg, po qd for 31 days measured on day 32 (reference value: 28 +/- 1.6 g); format: organism-based; conditions: in vivo, 744 h
Rattus norvegicus [7] = assay: Antidiabetic activity in Zucker rat sub-chronic fa/fa prediabetic model assessed as blood glucose AUC (0 to 120 min) at 50 mg/kg, po qd for 31 days measured on day 29 post dose by OGTT (reference value: 41471 +/- 2451 mg.min/dL); format: functional
Rattus norvegicus [8] = assay: Effect on NDUFB10 gene expression in epididymal white adipose tissue of Zucker rat sub-chronic fa/fa prediabetic model at 10 mg/kg, po qd for 15 days by microarray analysis relative to control; format: functional
Rattus norvegicus [9] = assay: Effect on RRAS2 gene expression in epididymal white adipose tissue of Zucker rat sub-chronic fa/fa prediabetic model at 10 mg/kg, po qd for 15 days by microarray analysis relative to control; format: functional
Rattus norvegicus [10] = assay: Effect on NDUFS4 gene expression in epididymal white adipose tissue of Zucker rat sub-chronic fa/fa prediabetic model at 10 mg/kg, po qd for 15 days by microarray analysis relative to control; format: functional
[11] = Drug uptake in kidney of Zucker rat sub-chronic fa/fa prediabetic model at 12.5 mg/kg, po qd for 11 days; format: ADME, organism-based; conditions: read-out: Drug uptake
[12] = AUC (0 to 24 hrs) in Sprague-Dawley rat at 10 mg/kg administered via oral gavage by LC-MS analysis; format: ADME, organism-based; parameters: dose 10 mg/kg, time < 24 hr, route oral; conditions: in vivo
Cavia porcellus = species: Cavia porcellus; assay: Inhibition of veratridine binding to Dunkin Hartley guinea pig atria sodium channel site 2 (unknown origin) at 10 uM relative to control
Rattus norvegicus [13] = assay: Toxicity in Zucker rat sub-chronic fa/fa prediabetic model assessed as brown adipose tissue weight at 50 mg/kg, po qd for 31 days measured on day 32 (reference value: 2.1 +/- 0.3 g); format: organism-based; conditions: in vivo, 744 h
Rattus norvegicus [14] = assay: Toxicity in Zucker rat sub-chronic fa/fa prediabetic model assessed as serum cholesterol level at 10 mg/kg, po qd for 31 days measured on day 32 (reference value: 295 +/- 91 mg/dl); format: organism-based; conditions: in vivo, 744 h
Rattus norvegicus [15] = assay: Toxicity in […] model assessed as liver weight at 10 mg/kg, po qd for 31 days measured on day 32 (reference value: 2.77 +/- 0.16 g); format: organism-based; conditions: in vivo, 744 h
Rattus norvegicus [16] = assay: Effect on ECHS1 gene expression in epididymal white adipose tissue of Zucker rat sub-chronic fa/fa prediabetic model at 10 mg/kg, po qd for 15 days by microarray analysis relative to control; format: functional
Rattus norvegicus [17] = assay: Toxicity in […] chronic ob/ob model assessed as serum triglyceride level at 50 mg/kg, po qd for 31 days measured on day 32 (reference value: 329 +/- 36 mg/dl); format: organism-based; conditions: in vivo, 744 h
Rattus norvegicus [18] = assay: Toxicity in Zucker rat sub-chronic fa/fa prediabetic model assessed as heart weight at 50 mg/kg, po qd for 31 days measured on day 32 (reference value: 1.19 +/- 0.04 g); format: organism-based; conditions: in vivo, 744 h
Rattus norvegicus [19] = assay: Effect on DBT gene expression in epididymal white adipose tissue of Zucker rat sub-chronic fa/fa prediabetic model at 10 mg/kg, po qd for 15 days by microarray analysis relative to control; format: functional
Rattus norvegicus [20] = assay: Toxicity in Zucker rat sub-chronic fa/fa prediabetic model assessed as insulin level per gram pancreas at 50 mg/kg, po qd for 31 days measured on day 32 (reference value: 55.2 +/- 5.5 ug); format: organism-based; conditions: in vivo, 744 h
Rattus norvegicus [21] = assay: Toxicity in […] chronic ob/ob model assessed as serum creatinine level at 3 mg/kg, po qd for 31 days measured on day 32 (reference value: 0.55 +/- 0.018 mg/dl); format: organism-based; conditions: in vivo, 744 h
[22] = AUC (0 to 24 hrs) in […] model at 50 mg/kg, po qd for 28 days measured on day 28 post last dose; format: ADME, organism-based; parameters: dose 50 mg/kg, time < 24 hr, route oral; conditions: in vivo
Rattus norvegicus [23] = assay: Toxicity in Zucker rat sub-chronic fa/fa prediabetic model assessed as insulin level per gram pancreas at 1 mg/kg, po qd for 31 days measured on day 32 (reference value: 55.2 +/- 5.5 ug); format: organism-based; conditions: in vivo, 744 h
Rattus norvegicus [24] = assay: Toxicity in Zucker rat sub-chronic fa/fa prediabetic model assessed as body weight at 1 mg/kg, po qd for 29 days measured on day 29 post last dose (reference value: 533 +/- 10 g); format: organism-based; conditions: in vivo, 696 h
Rattus norvegicus [25] = assay: Effect on PPP2R5B gene expression in epididymal white adipose tissue of Zucker rat sub-chronic fa/fa prediabetic model at 10 mg/kg, po qd for 15 days by microarray analysis relative to control; format: functional
Rattus norvegicus [26] = assay: Toxicity in Zucker rat sub-chronic fa/fa prediabetic model assessed as increase in food consumption at 10 mg/kg, po qd during 10 days study; format: organism-based; conditions: in vivo, 240 h
Rattus norvegicus [27] = assay: Effect on CTGF gene expression in epididymal white adipose tissue of Zucker rat sub-chronic fa/fa prediabetic model at 10 mg/kg, po qd for 15 days by microarray analysis relative to control; format: functional
Rattus norvegicus [28] = assay: Effect on CPT1A gene expression in epididymal white adipose tissue of Zucker rat sub-chronic fa/fa prediabetic model at 10 mg/kg, po qd for 15 days by microarray analysis relative to control; format: functional
Rattus norvegicus [29] = assay: Effect on IGFBP6 gene expression in epididymal white adipose tissue of Zucker rat sub-chronic fa/fa prediabetic model at 10 mg/kg, po qd for 15 days by microarray analysis relative to control; format: functional
Rattus norvegicus [30] = assay: Toxicity in Zucker rat sub-chronic fa/fa prediabetic model assessed as change in body weight at 1 mg/kg, po qd for 29 days measured on day 1 to 29 during compound dosing (reference value: 140 +/- 7 g); format: organism-based; conditions: in vivo, 696 h
Rattus norvegicus [31] = assay: Effect on NDUFA5 gene expression in epididymal white adipose tissue of Zucker rat sub-chronic fa/fa prediabetic model at 10 mg/kg, po qd for 15 days by microarray analysis relative to control; format: functional
[32] = Tmax in ob/ob mouse at 18 mg/kg administered via oral gavage by LC-MS analysis; format: ADME, organism-based; conditions: in vivo

CN1CC[C@@H](N2C(=O)S/C(=C\c3ccc4c(cnn4Cc4ccc(Cl)cc4C(F)(F)F)c3)C2=O)[C@H](F)C1
Activity (Rattus norvegicus [1]): -67%
Activity (Rattus norvegicus [2]): 1040 mg/dL
half-life [3]: 10.6 h
fold change (FC) (Rattus norvegicus [4]): 1.396
fold change (FC) (Rattus norvegicus [5]): 1.257
Activity (Rattus norvegicus [6]): 18.5 g
Activity (Rattus norvegicus [7]): 16701 mg·min/dL
fold change (FC) (Rattus norvegicus [8]): 1.237
fold change (FC) (Rattus norvegicus [9]): 1.235
fold change (FC) (Rattus norvegicus [10]): 1.239
concentration at 264 h [11]: 2660 ng/g
AUC(0-t) at 24 h [12]: 5410 ng·h/mL
inhibition (Cavia porcellus): 69%
Activity (Rattus norvegicus [13]): 10.3 g
Activity (Rattus norvegicus [14]): 197 mg/dL
Activity (Rattus norvegicus [15]): 2.67 g
fold change (FC) (Rattus norvegicus [16]): 1.35
Activity (Rattus norvegicus [17]): 81 mg/dL
Activity (Rattus norvegicus [18]): 1.19 g
fold change (FC) (Rattus norvegicus [19]): -1.217
Activity (Rattus norvegicus [20]): 94 µg
Activity (Rattus norvegicus [21]): 0.5 mg/dL
AUC at 24 h [22]: 31600 ng·h/mL
Activity (Rattus norvegicus [23]): 72.7 µg
Activity (Rattus norvegicus [24]): 525 g
fold change (FC) (Rattus norvegicus [25]): 1.276
Activity (Rattus norvegicus [26]): Non-Toxic
fold change (FC) (Rattus norvegicus [27]): 1.458
fold change (FC) (Rattus norvegicus [28]): -1.277
fold change (FC) (Rattus norvegicus [29]): -1.269
Activity (Rattus norvegicus [30]): 142 g
fold change (FC) (Rattus norvegicus [31]): 1.568
Tmax [32]: 2 h
